Reference: patent publication US4459290A, “C-23-Modified derivatives of OMT, pharmaceutical compositions and method of use” (priority 1982, dated 1984)
In brackets after ≈: the same amount, converted by molar mass. Where two headings read alike, the source gives them in different places.

What was measured:
[1] = system: Staphylococcus epidermidis EPI2; experiment: MIC, standard agar-dilution assay (Table V); assay type: cell-based; details: Staphylococcus epidermidis, EPI2
Procedure: (§1) Especially noteworthy is the improved activity against gram-negative bacteria for several derivatives when compared to the activity of OMT. […] The MIC's in Tables V and VI were determined by standard agar-dilution assays. The MIC's in Table VII were obtained using a conventional broth-dilution microtiter test.

[2] = system: Streptococcus Group D X66; experiment: MIC, standard agar-dilution assay (Table V); assay type: cell-based
Procedure: as §1

Escherichia coli N10 = experiment: MIC, standard agar-dilution assay (Table V); assay type: cell-based; details: Escherichia coli
Procedure: as §1

[3] = system: Klebsiella pneumoniae KAE; experiment: MIC, standard agar-dilution assay (Table V); assay type: cell-based; details: Klebsiella pneumoniae
Procedure: as §1

[4] = system: Staphylococcus aureus X1.1; experiment: MIC, standard agar-dilution assay (Table V); assay type: cell-based; details: Staphylococcus aureus, X1.1
Procedure: as §1

Shigella sonnei N9 = experiment: MIC, standard agar-dilution assay (Table V); assay type: cell-based
Procedure: as §1

[5] = system: Staphylococcus aureus S13E; experiment: MIC, standard agar-dilution assay (Table V); assay type: cell-based; details: Staphylococcus aureus, S13E
Procedure: as §1

[6] = system: Staphylococcus aureus V41; experiment: MIC, standard agar-dilution assay (Table V); assay type: cell-based; details: Staphylococcus aureus, V41
Procedure: as §1

Streptococcus Group 9960 = experiment: MIC, standard agar-dilution assay (Table V); assay type: cell-based; details: GROUP9960
Procedure: as §1

[7] = system: Staphylococcus epidermidis EPI1; experiment: MIC, standard agar-dilution assay (Table V); assay type: cell-based; details: Staphylococcus epidermidis, EPI1
Procedure: as §1

Escherichia coli EC14 = experiment: MIC, standard agar-dilution assay (Table V); assay type: cell-based; details: Escherichia coli
Procedure: as §1

[8] = system: Staphylococcus aureus X400; experiment: MIC, standard agar-dilution assay (Table V); assay type: cell-based; details: Staphylococcus aureus, X400
Procedure: as §1

[9] = system: Klebsiella pneumoniae X26; experiment: MIC, standard agar-dilution assay (Table V); assay type: cell-based; details: Klebsiella pneumoniae
Procedure: as §1

[10] = system: Streptococcus pyogenes C203; experiment: MIC, standard agar-dilution assay (Table V); assay type: cell-based; details: Streptococcus pyogenes
Procedure: (§2) The MIC's in Tables V and VI were determined by standard agar-dilution assays. The MIC's in Table VII were obtained using a conventional broth-dilution microtiter test.

[11] = system: Haemophilus influenzae R252; experiment: MIC, standard agar-dilution assay (Table V); assay type: cell-based; details: Haemophilus influenzae
Procedure: as §2

Escherichia coli TEM = experiment: MIC, standard agar-dilution assay (Table V); assay type: cell-based; details: Escherichia coli
Procedure: as §2

Pasteurella multocida = experiment: Protection of one-day-old chicks against Pasteurella multocida infection (Table IX); assay type: in vivo; details: subcutaneous 30 mg/kg × 2, 1 and 4 hours post-challenge
Procedure: The C-23 modified derivatives of OMT have also shown in vivo antibacterial activity against infections induced by gram-negative bacteria. Table IX summarizes the results of tests in which illustrative compounds were evaluated against Pasteurella infections in one-day-old chicks. The compounds were administered by subcutaneous injection at a dosage of 30 mg/kg, 1 and 4 hours post-challenge of the chicks with Pasteurella multocida (0.1 ml of a twenty-hour tryptose broth culture of an avian P. multocida given subcutaneously). In the tests, all ten non-medicated infected chicks died within 24 hours of Pasteurella challenge.

[12] = system: Streptococcus pneumoniae Park I; experiment: microbe, parasite or virus in culture; assay type: cell-based; details: Streptococcus pneumoniae
Procedure: as §1

[13] = system: Streptococcus pyogenes C203; experiment: ED50 in mice experimentally infected with S. pyogenes C203 (Table VIII); assay type: in vivo
Procedure: The C-23 modified derivatives of OMT of this invention have shown in vivo antimicrobial activity against experimental infections. When two doses of test compound were administered to mice experimentally infected with a gram-positive bacterium, S. pyogenes C203, the activity observed was measured as an ED50 value [effective dose in mg/kg to protect 50% of the test animals: see Warren Wick, et al., J. Bacteriol. 81, 233-235 (1961)].

[14] = system: Pasteurella multocida 40G; experiment: MIC, broth-dilution microtiter test (Table VII); assay type: cell-based; details: Pasteurella multocida, 40G
Procedure: as §1

[15] = system: Pasteurella hemolytica 41D; experiment: MIC, broth-dilution microtiter test (Table VII); assay type: cell-based; details: Pasteurella, P. hemolytica 41D, read-out: MIC
Procedure: as §1

Mycoplasma hyorhinis = experiment: MIC, broth-dilution microtiter test (Table VII); assay type: cell-based
Procedure: as §1

[16] = system: Pasteurella multocida 60A; experiment: MIC, broth-dilution microtiter test (Table VII); assay type: cell-based; details: Pasteurella multocida, 60A
Procedure: as §1

Mycoplasma gallisepticum = experiment: MIC, broth-dilution microtiter test (Table VII); assay type: cell-based; details: Mycoplasmoides gallisepticum
Procedure: as §1

[17] = system: Pasteurella hemolytica 23C; experiment: MIC, broth-dilution microtiter test (Table VII); assay type: cell-based; details: Pasteurella, P. hemolytica 23C, read-out: MIC
Procedure: as §1

Mycoplasma synoviae = experiment: MIC, broth-dilution microtiter test (Table VII); assay type: cell-based; details: Mycoplasmopsis synoviae
Procedure: as §1

[18] = system: Pasteurella hemolytica 22C; experiment: MIC, broth-dilution microtiter test (Table VII); assay type: cell-based; details: Pasteurella, P. hemolytica 22C, read-out: MIC
Procedure: as §1

[19] = system: Pasteurella multocida 17E; experiment: MIC, broth-dilution microtiter test (Table VII); assay type: cell-based; details: Pasteurella multocida, 17E
Procedure: as §1

Streptococcus sp. 80 = experiment: MIC, broth-dilution microtiter test (Table VII); assay type: cell-based
Procedure: as §1

[20] = system: Pasteurella multocida 68C; experiment: MIC, broth-dilution microtiter test (Table VII); assay type: cell-based; details: Pasteurella multocida
Procedure: as §1

[21] = system: Pasteurella multocida 22A; experiment: MIC, broth-dilution microtiter test (Table VII); assay type: cell-based; details: Pasteurella multocida
Procedure: as §1

Staphylococcus aureus = experiment: MIC, broth-dilution microtiter test (Table VII); assay type: cell-based; details: Staphylococcus aureus
Procedure: as §1

[22] = system: Haemophilus influenzae Holt; experiment: MIC, standard agar-dilution assay (Table V); assay type: cell-based; details: Haemophilus influenzae
Procedure: as §2

SMILES | MIC [1] [µg/mL] | MIC [2] [µg/mL] | MIC [4] [µg/mL] | MIC (Shigella sonnei N9) [µg/mL] | MIC [5] [µg/mL] | MIC [6] [µg/mL] | MIC (Streptococcus Group 9960) [µg/mL] | MIC [7] [µg/mL] | MIC [8] [µg/mL] | MIC [14] [µg/mL] | MIC [15] [µg/mL] | MIC [16] [µg/mL] | MIC (Mycoplasma gallisepticum) [µg/mL] | MIC [17] [µg/mL] | MIC (Mycoplasma synoviae) [µg/mL] | MIC [18] [µg/mL] | MIC [19] [µg/mL] | MIC (Staphylococcus aureus) [µg/mL] | other results
CCC1OC(=O)CC(O)C(C)C(OC2OC(C)C(O)C(N(C)C)C2O)C(CC=O)CC(C)C(=O)C=CC(C)=CC1CN (stereo not shown) [Compound 9, 23-Deoxy-23-amino-OMT] | 8 (≈ 13.4 µM) | 8 (≈ 13.4 µM) | 8 (≈ 13.4 µM) | > 128 | 8 (≈ 13.4 µM) | 8 (≈ 13.4 µM) | 8 (≈ 13.4 µM) | 8 (≈ 13.4 µM) | 8 (≈ 13.4 µM) | 12.5 (≈ 20.9 µM) | 25 (≈ 41.9 µM) | 6.25 (≈ 10.5 µM) | 0.78 (≈ 1.31 µM) | 12.5 (≈ 20.9 µM) | 0.78 (≈ 1.31 µM) | 12.5 (≈ 20.9 µM) | 6.25 (≈ 10.5 µM) | 12.5 (≈ 20.9 µM) | MIC (Escherichia coli N10; N10): > 128 µg/mL; MIC [3]: > 128 µg/mL; MIC (Escherichia coli EC14; EC14): > 128 µg/mL; MIC ([9]; X26): 16 µg/mL (≈ 26.8 µM); MIC ([10]; S. pyogenes C203, agar dilution, read-out: MIC): 2 µg/mL (≈ 3.35 µM); MIC ([11]; H. influenzae R252, ampicillin-resistant strain, agar dilution, read-out: MIC): 1 µg/mL (≈ 1.68 µM); MIC (Escherichia coli TEM): > 128 µg/mL; Number of deaths/number treated (Pasteurella multocida): 0/10; MIC ([12]; S. pneumoniae Park I, agar dilution, read-out: MIC): 1 µg/mL (≈ 1.68 µM); ED50 ([13]; C203, po, read-out: ED50, Oral): > 100 mg/kg; ED50 ([13]; C203, sc, mice, subcutaneous, doses given 1 and 4 hours postinfection, read-out: ED50, Subcutaneous): 2.6 mg/kg; MIC (Mycoplasma hyorhinis): 12.5 µg/mL (≈ 20.9 µM); MIC (Streptococcus sp. 80; Streptococcus sp. 80, broth-dilution microtiter, read-out: MIC): 1.56 µg/mL (≈ 2.61 µM); MIC ([20]; 68C): 12.5 µg/mL (≈ 20.9 µM); MIC ([21]; P. multocida 22A, broth-dilution microtiter, read-out: MIC): 25 µg/mL (≈ 41.9 µM)
CCC1OC(=O)CC(O)C(C)C(OC2OC(C)C(O)C(N(C)C)C2O)C(CC=O)CC(C)C(=O)C=CC(C)(OCCc2ccccc2)C2CC12 (stereo not shown) [Compound 18] | 2 (≈ 2.85 µM) | 1 (≈ 1.42 µM) | 1 (≈ 1.42 µM) | > 128 | 1 (≈ 1.42 µM) | 2 (≈ 2.85 µM) | 2 (≈ 2.85 µM) | 1 (≈ 1.42 µM) | 2 (≈ 2.85 µM) | 12.5 (≈ 17.8 µM) | 25 (≈ 35.6 µM) | 12.5 (≈ 17.8 µM) | 1.56 (≈ 2.22 µM) | 25 (≈ 35.6 µM) | 3.12 (≈ 4.45 µM) | 25 (≈ 35.6 µM) | 12.5 (≈ 17.8 µM) | 6.25 (≈ 8.9 µM) | MIC (Escherichia coli N10; E. coli N10, agar dilution, read-out: MIC): > 128 µg/mL; MIC ([3]; K. pneumoniae KAE, agar dilution, read-out: MIC): > 128 µg/mL; MIC (Escherichia coli EC14; E. coli EC14, agar dilution, read-out: MIC): > 128 µg/mL; MIC ([9]; K. pneumoniae X26, agar dilution, read-out: MIC): 16 µg/mL (≈ 22.8 µM); MIC [22]: 8 µg/mL (≈ 11.4 µM); MIC ([10]; C203): 1 µg/mL (≈ 1.42 µM); MIC ([11]; R252): 8 µg/mL (≈ 11.4 µM); MIC (Escherichia coli TEM; E. coli TEM, agar dilution, read-out: MIC): 64 µg/mL (≈ 91.2 µM); MIC [12]: 0.25 µg/mL (≈ 0.356 µM); MIC (Mycoplasma hyorhinis; M. hyorhinis, broth-dilution microtiter, read-out: MIC): 25 µg/mL (≈ 35.6 µM); MIC (Streptococcus sp. 80; Streptococcus, SP.80): 1.56 µg/mL (≈ 2.22 µM); MIC ([20]; P. multocida 68C, broth-dilution microtiter, read-out: MIC): 25 µg/mL (≈ 35.6 µM); MIC ([21]; 22A): 12.5 µg/mL (≈ 17.8 µM)
